In US20090170834A1, “Fused Pyrimidones and Thiopyrimidones, and Uses Thereof” (PROLEXYS PHARMACEUTICALS, INC., priority 2005, published 2009):

Tests used:
[1] = test system: engineered tumorigenic cells; assay: Sytox primary screen, inhibition of growth of tumorigenic cells; assay type: cell-based; details: Homo sapiens; compound in DMSO, 48 hours exposure, Sytox readout
Experimental: The ability of Compounds 1 and 2, dissolved in DMSO, to inhibit the growth of normal and tumorigenic cells was measured. The compounds were assayed by the Sytox primary screen, a phenotypic assay which monitors alterations in cell survival-proliferation as a result of compound treatment. It was devised as high throughput method to identify compounds which specifically alter the growth potential of cells harboring the causative mutations found in cancer patients while not affecting the growth of normal cells. The assay relies upon an inexpensive, simple and reliable readout of a membrane impermeable fluorescent dye (Sytox, from Molecular Probes) which binds to nucleic acid. In healthy cells, no signal is detected because the cell's membrane is intact and the dye will not enter. However, if a cell's membrane is compromised as a result of apoptosis or necrosis, a fluorescent signal proportional to the number of similarly affected cells will be detected. By utilizing a two-step readout (final read in the presence of detergent to permit labeling of all cells), the assay can identify compounds which produce cytostasis, cytotoxicity and/or mitogenesis. The first read or “dead cell” read, provides an estimate of the toxicity of a given compound by indicating the number of dead or dying cells in the culture at the time of assay. […]

HT-1080 cells = assay: Inhibition of growth of HT-1080 cells (Sytox assay); assay type: cell-based; details: Homo sapiens; HT-1080 fibrosarcoma cells, N-ras codon 12 mutation; compound in DMSO, 48 hours exposure
Experimental: The ability of Compounds 1 and 2, dissolved in DMSO, to inhibit the growth of normal and tumorigenic cells was measured. The compounds were assayed by the Sytox primary screen, a phenotypic assay which monitors alterations in cell survival-proliferation as a result of compound treatment. It was devised as high throughput method to identify compounds which specifically alter the growth potential of cells harboring the causative mutations found in cancer patients while not affecting the growth of normal cells. The assay relies upon an inexpensive, simple and reliable readout of a membrane impermeable fluorescent dye (Sytox, from Molecular Probes) which binds to nucleic acid. In healthy cells, no signal is detected because the cell's membrane is intact and the dye will not enter. However, if a cell's membrane is compromised as a result of apoptosis or necrosis, a fluorescent signal proportional to the number of similarly affected cells will be detected. By utilizing a two-step readout (final read in the presence of detergent to permit labeling of all cells), the assay can identify compounds which produce cytostasis, cytotoxicity and/or mitogenesis. The first read or “dead cell” read, provides an estimate of the toxicity of a given compound by indicating the number of dead or dying cells in the culture at the time of assay. The second read or “total cell” read, captures both the cumulative effects of cytoxicity in reducing the size of the cell population as well as any cytostatic or anti-proliferative effects a test compound may exert on the cells in the test population in the absence of toxicity.
Cells were seeded overnight in 96 well plates at densities that without treatment would permit 95% confluence in the wells 72 hours later. The following day, the cells were exposed to test compounds in a dilution series for a period of 48 hours. Following this incubation period, the Sytox reagent was added to the cultures at the manufacturer's recommended concentration and the dead cell fluorescence read was taken. After completion of this measurement, the detergent Saponin was added to each well of the cultures to permeabilize the membranes allowing the Sytox reagent to enter every cell, thereby facilitating measurement of the total number of cells remaining in the culture.
The ability of various compounds of the invention, in DMSO, to inhibit the growth of HT-1080 cells was measured. The HT-1080 cell line used in these experiments was derived from a patient with fibrosarcoma and harbors an activating mutation in the N-ras gene at codon 12. The compound was assayed using the assay described in Example 6. The results of the assay are shown in the table below, where the activity corresponds to the following ranges: A—less than 10 nM, B—10-100 nM, C—100-1000 nM, D—1000-2000 nM, E—greater than 2000 nM.

SMILES | IC50 [1] [nM] | IC50 (HT-1080 cells) [nM]
CCOc1ccccc1-n1c(C(C)N2CCN(C(=O)COc3ccc(Cl)cc3)CC2)nc2ccncc2c1=O (stereo not drawn) [Compound 1, 2-(1-(4-(2-(4-chlorophenoxy)acetyl)piperazin-1-yl)ethyl)-3-(2-ethoxyphenyl)pyrido[4,5-d]pyrimidin-4(3H)-one] | ~10000 | 
CCOc1ccccc1-n1c(C(C)N2CCN(C(=O)COc3ccc(Cl)cc3)CC2)nc2c(cnn2-c2ccccc2)c1=O (stereo not drawn) [Compound 2, 6-(1-(4-(2-(4-chlorophenoxy)acetyl)piperazin-1-yl)ethyl)-5-(2-ethoxyphenyl)-1-phenyl-1H-pyrazolo[3,4-d]pyrimidin-4(5H)-one] | ~10000 | 
CCOc1ccccc1-n1c(CN2CCNCC2)nc2c(cnn2-c2ccccc2)c1=O [Compound 3, 5-(2-ethoxyphenyl)-1-phenyl-6-(piperazin-1-ylmethyl)-1H-pyrazolo[3,4-d]pyrimidin-4(5H)-one] |  | > 2000
CCOc1ccccc1-n1c(CN2CCNCC2)nc2sccc2c1=O [Compound 4, 3-(2-ethoxyphenyl)-2-(piperazin-1-ylmethyl)thieno[2,3-d]pyrimidin-4(3H)-one] |  | 100 to 1000
CCOc1ccccc1-n1c(CN2CCCNCC2)nc2sccc2c1=O [Compound 5, 2-((1,4-diazepan-1-yl)methyl)-3-(2-ethoxyphenyl)thieno[2,3-d]pyrimidin-4(3H)-one] |  | < 10
CCOc1ccccc1-n1c(CN2CCCN(C)CC2)nc2sccc2c1=O [Compound 6, 3-(2-ethoxyphenyl)-2-((4-methyl-1,4-diazepan-1-yl)methyl)thieno[2,3-d]pyrimidin-4(3H)-one] |  | < 10
CCOc1ccccc1-n1c(CN2CCCN(CC)CC2)nc2sccc2c1=O [Compound 7, 3-(2-ethoxyphenyl)-2-((4-ethyl-1,4-diazepan-1-yl)methyl)thieno[2,3-d]pyrimidin-4(3H)-one] |  | 10 to 100
CCOc1ccccc1-n1c(CN2CCNCC2)nc2cnccc2c1=O [Compound 8, 3-(2-ethoxyphenyl)-2-(piperazin-1-ylmethyl)pyrido[3,4-d]pyrimidin-4(3H)-one] |  | > 2000
CCOc1ccccc1-n1c(CN2CCCN(C)CC2)nc2cnccc2c1=O [Compound 9, 3-(2-ethoxyphenyl)-2-((4-methyl-1,4-diazepan-1-yl)methyl)pyrido[3,4-d]pyrimidin-4(3H)-one] |  | > 2000
